The values that follow come from PMC8705818, “Experimental Characterization of the Interaction between the N-Terminal SH3 Domain of Crkl and C3G” (International Journal of Molecular Sciences, 2021).

Each structure is given as a SMILES string. Peptide text beside a SMILES is read from it. * marks the point of attachment. Dansyl = CN(C)c1cccc2c(S(=O)(=O)*)cccc12

In one experiment the target is T1, N-SH3 E140A (Crkl) (Homo sapiens, UniProt P46109, E140A).
T1 construct: The construct encoding the N-SH3 domain of Crkl was subcloned in a pET28b+ plasmid vector; His-tag; made in house; host or cells: E. coli BL21
The experiment is described as follows: Stopped-flow kinetic binding, N-SH3 E140A versus C3G277–296. Conditions: pH 7.5, E140A, 50 mM Hepes pH 7.5, 10 °C. The method, then: (§1) We rapidly mixed a constant concentration of C3G277–296 peptide (0.5 µM) versus increasing concentrations of N-SH3 (ranging from 0.5 to 5 µM) and the observed rate constants (kobs) obtained at different ionic strength conditions (buffer Hepes 50 mM, pH 7.0, 0.15 M, 0.3 M, 0.5 M and 1 M NaCl) were plotted as function of concentration of N-SH3 and fitted with a linear equation (Figure 1). By following previously derived equations [19, 20], the dependence of kobs as function of [N-SH3] was fitted with Equation (1), taking into account the non-pseudo-first order conditions, allowing us to calculate the microscopic association rate constant (kon), the microscopic dissociation rate constant (koff) of the binding reaction and the equilibrium dissociation rate constant KD, such as koff/kon. To increase the reliability of the calculated KD, we resorted to directly obtaining a koff value through displacement experiments (Table 1), in which a preincubated complex of N-SH3 domain and dansylated C3G277–296 peptide (at the concentration of 0.5 and 2 µM, respectively) were rapidly mixed versus a high excess of nondansylated peptide (ranging from 20 to 40 µM). In agreement with the theory in [21], the observed rate constants were insensitive to displacer concentration. In all binding and displacement experiments conducted, traces were satisfactorily fitted with a single-exponential equation. (1) kobs=(kon^2∗(2−[NSH3])^2+koff^2+2konkoff(2+[NSH3]))^1/2
(§2) Then, we employed D138A, E140A and D141A variants in kinetic binding experiments with C3G, and we explored the effect of increasing ionic strength on the binding reaction of these variants.
(§3) Kinetic binding experiments were performed on a single-mixing SX-18 stopped-flow instrument (Applied Photophysics), by mixing a constant concentration (0.5 μM) of C3G dansylated versus increasing concentrations of N-SH3 at 10 °C. Ionic strength dependence of wt N-SH3 was performed with concentrations ranging from 1 to 5 µM for 0 M NaCl condition and from 0.5 to 5 µM for 0.15 M, 0.3 M, 0.5 M and 1 M NaCl, buffer Hepes 50 mM pH 7.0. The excitation wavelength was 280 nm, and fluorescence was collected using a 455 nm cut-off filter. At least, five independent acquisitions were collected and averaged for each experiment. The resulting averages were all satisfactorily fitted with a single-exponential equation. Buffers used for pH dependence were: 50 mM Sodium Acetate pH 5.0, 50 mM Sodium Acetate, pH 5.5, Bis–Tris 50 mM pH 6.0, Bis–Tris 50 mM pH 6.5, Hepes 50 mM pH 7.0, Hepes 50 mM pH 7.5, Tris–HCl 50 mM pH 8.0, Tris–HCl 50 mM pH 8.5, Tris–HCl 50 mM pH 9.0, all with added 0.5 M NaCl. […]

Experiment [1] addresses T2, N-SH3 D138A (Crkl) (Homo sapiens, UniProt P46109, D138A).
T2 construct: The construct encoding the N-SH3 domain of Crkl was subcloned in a pET28b+ plasmid vector; His-tag; made in house; host or cells: E. coli BL21
The experiment is described as follows: Stopped-flow kinetic binding, N-SH3 D138A versus C3G277–296. The conditions noted are these: pH 7.5, D138A, 50 mM Hepes pH 7.5, 10 °C. The method, then: as §1, §2, §3

Experiment [2] addresses T2, N-SH3 D138A (Crkl). The experiment is described as follows: Stopped-flow displacement, N-SH3 D138A:dansylated C3G277–296 complex. The format is binding. The conditions noted are these: pH 7.5, D138A, 50 mM Hepes pH 7.5, 10 °C. On the procedure: as §1
as §3, with “NaCl. Concentrations of N-SH3 used for each experiment were: 4.0–8.0 µM at pH 5.0, 2.0–7.0 µM at pH 5.5, 1.0–5.0 µM at pH 6.0, 0.5–5.0 µM at pH 6.5, 1.5–6.0 µM at pH 7.0, 0.5–5.0 µM at pH 7.5, 1.5–6.0 µM at pH 8.0, 1.5–6.0 µM pH 8.5, 1.5–6.0 µM at pH 9.0.” for “NaCl.”

T1 sequence (P46109 123-183 E140A limits assumed): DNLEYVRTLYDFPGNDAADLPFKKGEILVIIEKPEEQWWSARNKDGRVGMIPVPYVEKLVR
T2 sequence (P46109 123-183 D138A limits assumed): as the sequence (P46109 123-183 E140A limits assumed) above, with D16A, A18E counted along it

For `CC(C)C[C@H](NC(=O)[C@H](C)NC(=O)[C@@H]1CCCN1C(=O)[C@@H]1CCCN1C(=O)[C@@H]1CCCN1C(=O)[C@H](CO)NC(=O)[C@H](CC(N)=O)NC(=O)[C@H](CC(=O)O)NC(=O)[C@@H](NC(=O)[C@@H](NS(=O)(=O)c1cccc2c(N(C)C)cccc12)C(C)C)C(C)C)C(=O)N1CCC[C@H]1C(=O)N1CCC[C@H]1C(=O)N[C@@H](CCCCN)C(=O)N[C@@H](CCCCN)C(=O)N[C@@H](CCCNC(=N)N)C(=O)N[C@@H](CCC(N)=O)C(=O)N[C@@H](CO)C(=O)N[C@@H](C)C(=O)N1CCC[C@H]1C(=O)N[C@@H](CO)C(=O)O` [C3G277–296] (Dansyl-VVDNSPPPALPPKKRQSAPS-OH), the kon (as a rule, the rate constant with which the complex forms) on N-SH3 E140A (Crkl) (0 M NaCl, 0.5 µM dansylated peptide vs 2.0–4.5 µM N-SH3 E140A) came to 7.8e+07 ± 6e+06 M⁻¹ s⁻¹; at N-SH3 E140A (Crkl) (0.05 M NaCl, 0.5 µM dansylated peptide vs 3.0–5.5 µM N-SH3 E140A), 8.9e+07 ± 8e+06 M⁻¹ s⁻¹; on N-SH3 E140A (Crkl) (0.10 M NaCl, 0.5 µM dansylated peptide vs 3.0–5.0 µM N-SH3 E140A), 7.7e+07 ± 8e+06 M⁻¹ s⁻¹; at N-SH3 E140A (Crkl) (0.15 M NaCl, 0.5 µM dansylated peptide vs 3.0–5.5 µM N-SH3 E140A), 8.1e+07 ± 8e+06 M⁻¹ s⁻¹; at N-SH3 D138A (Crkl) [1] (0 M NaCl, 0.5 µM dansylated peptide vs 2.0–4.5 µM N-SH3 D138A), 1.58e+08 ± 1.2e+07 M⁻¹ s⁻¹; on N-SH3 D138A (Crkl) [1] (0.05 M NaCl, 0.5 µM dansylated peptide vs 2.5–6.0 µM N-SH3 D138A), 8.1e+07 ± 8e+06 M⁻¹ s⁻¹. For the same compound, the kon on N-SH3 D138A (Crkl) [1] (0.10 M NaCl, 0.5 µM dansylated peptide vs 2.5–6.0 µM N-SH3 D138A) was 4.8e+07 ± 8e+06 M⁻¹ s⁻¹; at N-SH3 D138A (Crkl) [1] (0.15 M NaCl, 0.5 µM dansylated peptide vs 2.5–6.0 µM N-SH3 D138A) it was 1.2e+07 ± 5e+06 M⁻¹ s⁻¹. In addition, the koff (commonly the first-order rate constant of dissociation) at N-SH3 D138A (Crkl) [2] (0 M NaCl) is 139 ± 1 s⁻¹; on N-SH3 D138A (Crkl) [2] (0.05 M NaCl), 212 ± 2 s⁻¹; on N-SH3 D138A (Crkl) [2] (0.10 M NaCl), 183 ± 2 s⁻¹; at N-SH3 D138A (Crkl) [2] (0.15 M NaCl) it was 254 ± 2 s⁻¹.
